≈ marks a conversion by molar mass, not a printed value. Read-outs that look alike come from different tables or passages of the source.
Tests used:
Plasmodium falciparum = assay: In vitro anti-malarial activity against Plasmodium falciparum, IC50 assay / [3H]-hypoxanthine incorporation assay; type: cell-based; conditions: Erythrocyte, parasitized red blood cells, 48 hours
Procedure: In Vitro Anti-malarial Activity Against Plasmodium falciparum
IC50 Assay/[^3H]-Hypoxanthine Assay
Plasmodium falciparum strains.
The culture medium comprised RPMI 1640 with 25 mM HEPES, sodium bicarbonate and glutamine (GIBCO™ cat. ref.: 52400), supplemented with 10% of pooled human sera AB (Irvine Scientific, cat. ref.: 5009) and HT supplement (0.15 mM hypoxanthine and 24 μM thymidine), (GIBCO™ cat. ref.: 41065). Human sera were decomplemented 30 min. at 56° C., aliquoted and stored frozen at −20° C. until use in this culture medium.
Red blood cells O+ stock suspensions were prepared from whole blood bags coming from incomplete blood donation, provided by the Spanish Red Cross (<25 days after sampling). This “whole blood” was aliquoted and stored at 4° C.
To prepare red blood cells for the assay, the whole blood was centrifuged and washed 3 times with RPMI without serum. The upper phase, containing white blood cells was removed. The washed red blood cells were kept as a 50% suspension in complete medium. The prepared cells were stored at 4° C. and were employed in the assay at any time up to 4 days after preparation.
Test compounds were dissolved at 2 mg/ml in 100% DMSO on the day of the assay. If necessary, complete dissolution was achieved by gentle heating (the mixture was heated at a temperature <37° C.) and sonication (sonication bath).
For IC50 determinations, 10 serial 2-fold dilutions were prepared in complete medium in the presence of a constant amount of DMSO.
Plasmodium falciparum strains were maintained in complete medium at an hematocrit of 5% in continuous culture using a method adapted from Trager and Jensen (1, 2).
The parasitemia was calculated by counting the percentage of parasitized erythrocytes by optical microscopy. Thin films of blood were made every day from each culture flask, fixed with methanol and stained for 10 min. in Giemsa (Merck, cat ref.: 1.09204) at 10% in buffered water pH 7.2. The glass slides were observed and counted with an optical microscope (Nikon, Eclipse E200) equipped with a 100× immersion oil objective.
The culture was maintained at an hematocrit of 5%, with a daily change of medium and was diluted when parasitemia had reached about 5%.
[^3H] Hypoxanthine incorporation assay was conducted using a method adapted from Desjardins et al. (3). The assays were performed in 96 wells flat bottom microplates.
1. Serial dilutions of the test compounds (50 μl of a 5× solution/well) were deposited in duplicate. Compounds of the invention were tested in this assay. Chloroquine and Atovaquone were used as control compounds for each assay.
3. [^3H]-Hypoxanthine (Amersham Biosciences, cat. ref.: TRK74) was added extemporaneously to the inoculum suspension at a concentration of 1 μCi/ml (equating to […]). 200 μl of the resulting suspension was distributed into each well (other than the control well H12 described below) leading to a final volume of 250 μl per well, at 2% of hematocrit and 0.5% of parasitemia/well.
4. In each plate, 2 columns were reserved for control wells: • Column 11: Positive control wells: PRBCs with 0.2% DMSO—(i) to determine DMSO solvent effect on parasite growth (at a final concentration of 0.2%) and (ii) to compare with cultures treated with test compounds. • Column 12 (comprising wells A12-H12): • A12-D12—Background value wells: Uninfected RBCs—blank control to obtain the background reading from RBCs without parasites. • E12-G12—Solvent effect wells: PRBCs without DMSO—to determine DMSO solvent effect on PRBCs by comparing these wells with column 11 wells. • H12-Non-radioactive well: PRBCs with cold hypoxanthine—(i) to carry out a thin blood film to determine parasitemia value after incubation by microscopy and (ii) to ensure that the parasites have grown properly during the assay. (200 μl of inoculum suspension was prepared as described above (Items 2 and 3) but with non-tritiated hypoxanthine instead of [3H]-hypoxanthine, then added to this well to a final volume of 250 μl). […]

[1] = Compound solubility determination (gross and equilibrium solubility; FaSSIF, FeSSIF, pH 7.4 PBS, pH 1.0 0.1N HCl, pH 4.5 sodium citrate); type: physicochemical; conditions: thermodynamic from solid
Procedure: Compound Solubility Determination
An amount of 3 mg solid compound with LC-MS purity ≧95% was required. This amount was split between 3 different glass vials (1.8 ml volume each), placing 1 mg compound into each one.
Organic solvents of HPLC grade were used. Ultra pure water (Milli-Q grade) was used. Buffers were prepared with ultra pure water and filtered using 0.45μ cameo filters. The compositions of each solvent employed in this assay are described below (part III).
2. Determination of Equilibrium Solubility (Assuming Chemical Stability in the Desired Solvent is not a Problem).
For each of the three vial samples prepared as described above, in which the amount of compound was totally dissolved, the following procedure was subsequently carried out: • a) A small amount (approx. 0.1 mg) of additional solid compound was added to the vial to maintain an excess of the compound in the mixture in the form of undissolved solid. • b) The samples were magnetically stirred for 24 hr. If required, additional solid compound (0.1 mg) was added to maintain excess of it and then the samples were stirred again. • c) Then the samples were filtered (Millipore Milex filters nylon 0.2 um) and three aliquots were taken (one from each of the three vials) and analysed by LC-MS. • d) The pH of the final solution in each sample was measured with a pH-meter (WTW pH330i and a pH-electrode Sentix 41).
3. LC-MS Assay for Analytical Quantification
All filtered aliquots were analysed by LC-MS. The analysis was carried out with a Luna 5 μC18 (2) column 4.6×150 mm, using a HP1100 HPLC instrument interfaced with a Waters ZMD-2000 MS spectrometer. The concentration of the final sample as prepared above was calculated from that of a reference calibration curve obtained from serial dilutions of a 2 mM solution of the compound under investigation in DMSO (Aldrich cat. ref.: 27685-5) stock solution.
The analysis of all LC-MS data was performed with MassLynx 3.4 software. Statistical and graphic analysis of data was performed using Microsoft Excel. The concentration (uM) and solubility (ug/ml) for each compound was calculated using the peak areas from the sample and those from the calibration curve.
A) FaSSIF is a solvent which simulates the Fasted State of the Intestinal Fluid. (FaSSIF: Fasted State Simulated Intestinal Fluid).
B) FeSSIF is a solvent which simulates the Fed State of the Intestinal Fluid. (FeSSIF: Fed State Simulated Intestinal Fluid).
C) Solubility at pH 7.4 was determined in phosphate buffered saline (PBS) (Fluka cat. ref: 79383)
D) Solubility at pH 1.0 was determined in 0.1N HCl solution (Scharlau AL0744010C)
E) Solubility at pH 4.5 was determined in sodium citrate 0.5M solution. (Aldrich 25, 127-5)

[2] = 0.1N HCl solution, simulated gastric fluid, pH 1 (HCl), read-out: Solubility at pH 1 (HCl)
[3] = FaSSIF (fasted state simulated intestinal fluid), fassif, read-out: Solubility in FaSSIF
[4] = FeSSIF (fed state simulated intestinal fluid), fessif, read-out: Solubility in FeSSIF
[5] = phosphate buffered saline (PBS), aqueous buffer, pH 7.4 (PBS), read-out: Solubility at pH 7.4 (PBS)
[6] = sodium citrate 0.5M solution, aqueous buffer, pH 4.5 (Na citrate), read-out: Solubility at pH 4.5 (Na citrate)

SMILES | IC50 (Plasmodium falciparum) [µg/mL] | other results
Cc1[nH]c(C)c(-c2ccc(C#Cc3ccc(C(F)(F)F)cc3)nc2)c(=O)c1Cl [Example 41, 5-Chloro-2,6-dimethyl-6′-{[4-(trifluoromethyl)phenyl]ethynyl}-3,3′-bipyridin-4(1H)-one] | < 0.125 | –
Cc1[nH]c(C)c(-c2ccc(-c3ccc(OC(F)(F)F)cc3)nc2)c(=O)c1Br [Example 15, 5-Bromo-2,6-dimethyl-6′-{4-[(trifluoromethyl)oxy]phenyl}-3,3′-bipyridin-4(1H)-one] | < 0.125 | –
Cc1[nH]c(C)c(-c2ccc(-c3ccccc3Cl)nc2)c(=O)c1Cl [Example 35, 5-Chloro-6′-(2-chlorophenyl)-2,6-dimethyl-3,3′-bipyridin-4(1H)-one] | < 0.125 | –
Cc1[nH]c(C)c(-c2ccc(-c3ccc(C(F)(F)F)cc3Cl)nc2)c(=O)c1Cl [Example 55, 5-chloro-6′-[2-chloro-4-(trifluoromethyl)phenyl]-2,6-dimethyl-3,3′-bipyridin-4(1H)-one] | < 0.125 | –
Cc1[nH]c(C)c(-c2ccccn2)c(=O)c1Br [Compound W, 5′-Bromo-2′,6′-dimethyl-2,3′-bipyridin-4′-(1′H)-one, reference compound] | 0.5 (≈ 1.79 µM) | –
Cc1nc(C)c(-c2ccc(-c3ccc(Cl)cc3)cc2)c(O)c1Br [comparator X] | – | solubility at 24 h [1, 2]: < 1 µg/mL; solubility at 24 h [1, 3]: 5 to 10 µg/mL (≈ 12.9 to 25.7 µM); solubility at 24 h [1, 4]: 5 to 10 µg/mL (≈ 12.9 to 25.7 µM); solubility at 24 h [1, 5]: < 1 µg/mL; solubility at 24 h [1, 6]: < 1 µg/mL
Cc1[nH]c(C)c(-c2ccc(CCc3cccc(C(F)(F)F)c3)nc2)c(=O)c1Br [Example 43, 5-Bromo-2,6-dimethyl-6′-{2-[3-(trifluoromethyl)phenyl]ethyl}-3,3′-bipyridin-4(1H)-one] | < 0.125 | –
Cc1[nH]c(C)c(-c2ccc(-c3cccc(C(F)(F)F)c3)nc2)c(=O)c1Cl [Example 31, 5-Chloro-2,6-dimethyl-6′-{3-[trifluoromethyl]phenyl}-3,3′-bipyridin-4(1H)-one] | < 0.125 | –
Cc1[nH]c(C)c(-c2ccc(-c3ccc(OC(F)(F)F)cc3)nc2)c(=O)c1Cl.Cl [Example 38, 5-Chloro-2,6-dimethyl-6′-{4-[(trifluoromethyl)oxy]phenyl}-3,3′-bipyridin-4(1H)-one] | < 0.125 | –
Cc1[nH]c(C)c(-c2ccc(Oc3ccc(OC(F)(F)F)cc3)cc2)c(=O)c1Cl [comparator Y] | – | solubility at 24 h [1, 2]: < 1 µg/mL; solubility at 24 h [1, 3]: < 1 µg/mL; solubility at 24 h [1, 4]: 1 to 5 µg/mL (≈ 2.44 to 12.2 µM); solubility at 24 h [1, 5]: < 1 µg/mL; solubility at 24 h [1, 6]: < 1 µg/mL
Cc1[nH]c(C)c(-c2ccc(C#Cc3ccc(C(F)(F)F)cc3)nc2)c(=O)c1Br [Example 40, 5-Bromo-2,6-dimethyl-6′-{[4-(trifluoromethyl)phenyl]ethynyl}-3,3′-bipyridin-4(1H)-one] | < 0.125 | –
Cc1[nH]c(C)c(-c2ccc(-c3cccc(OC(F)(F)F)c3)nc2)c(=O)c1Cl [Example 28, 5-Chloro-2,6-dimethyl-6′-{3-[(trifluoromethyl)oxy]phenyl}-3,3′-bipyridin-4(1H)-one] | < 0.125 | –
Cc1[nH]c(C)c(-c2ccc(OCc3ccc(C(F)(F)F)cc3)nc2)c(=O)c1Br [Example 3, 5-Bromo-2,6-dimethyl-6′-{[4-(trifluoromethyl)benzyl]oxy}-3,3′-bipyridin-4(1H)-one] | < 0.125 | –
Cc1[nH]c(C)c(-c2ccc(-c3ccccc3C(F)(F)F)nc2)c(=O)c1Cl [Example 32, 5-Chloro-2,6-dimethyl-6′-{2-[trifluoromethyl]phenyl}-3,3′-bipyridin-4(1H)-one] | < 0.125 | –
Cc1[nH]c(C)c(-c2ccc(OCc3ccccc3C(F)(F)F)nc2)c(=O)c1Cl [Example 11, 5-Chloro-2,6-dimethyl-6′-{[2-(trifluoromethyl)benzyl]oxy}-3,3′-bipyridin-4(1H)-one] | < 0.125 | –
Cc1[nH]c(C)c(-c2ccc(OCc3ccc(OC(F)(F)F)cc3)nc2)c(=O)c1Cl [Example 8, 5-Chloro-2,6-dimethyl-6′-{[4-(trifluoromethoxy)benzyl]oxy}-3,3′-bipyridin-4(1H)-one] | < 0.125 | –
Cc1[nH]c(C)c(-c2ccc(-c3ccc(C(F)(F)F)cc3)nc2)c(=O)c1Cl [Example 30, 5-Chloro-2,6-dimethyl-6′-{4-[trifluoromethyl]phenyl}-3,3′-bipyridin-4(1H)-one] | < 0.125 | –
Cc1[nH]c(C)c(-c2ccc(-c3ccc(OCC(F)(F)F)cc3)nc2)c(=O)c1Cl [Example 62, 5-Chloro-2,6-dimethyl-6′-{4-[2,2,2-trifluoroethoxy]phenyl}-3,3′-bipyridin-4(1H)-one] | < 0.125 | –
Cc1[nH]c(C)c(-c2ccc(-c3ccc4c(c3)OCO4)nc2)c(=O)c1Cl [Example 54] | < 0.125 | –
Cc1[nH]c(C)c(-c2ccc(-c3ccc(N(C)C)c(Br)c3)nc2)c(=O)c1Br [Example 71, 5-Bromo-6′-[3-bromo-4-(dimethylamino)phenyl]-2,6-dimethyl-3,3′-bipyridin-4(1H)one] | < 0.125 | –
Cc1[nH]c(C)c(-c2ccc(Oc3cccc(C(F)(F)F)c3)cc2)c(=O)c1Cl [comparator Z] | – | solubility at 24 h ([1]; aqueous buffer, pH 4.5 (Na citrate), read-out: Solubility at pH 4.5 (Na citrate)): < 1 µg/mL; solubility at 24 h ([1]; aqueous buffer, pH 7.4 (PBS), read-out: Solubility at pH 7.4 (PBS)): < 1 µg/mL; solubility at 24 h ([1]; fassif, read-out: Solubility in FaSSIF): < 1 µg/mL; solubility at 24 h ([1]; fessif, read-out: Solubility in FeSSIF): 1 to 5 µg/mL (≈ 2.54 to 12.7 µM); solubility at 24 h ([1]; simulated gastric fluid, pH 1 (HCl), read-out: Solubility at pH 1 (HCl)): < 1 µg/mL

— patent US7579353B2, “Pyridinone derivatives against malaria” (Glaxo Group Limited, priority 2005, dated 2009)
